Tests used:
[1] = tested on: Bone Marrow Derived Macrophages (BMDM); experiment: BMDM cell viability (CellTiter-Glo) after SMAC mimetic Compound A ± p38 or MK2 inhibitor; assay type: cell-based, mouse; conditions: inhibitor 30 min then 500 nM Compound A, 24 h, FIG. 1C
Method: FIG. 1: p38 inhibitors increase TNFα production and cell death induced by SMAC mimetics. A. Bone Marrow Derived Macrophages (BMDM) were pretreated ±1 μM of the indicated p38 inhibitors for 30 min then treated with 500 nM of SMAC mimetic Compound A (CompA) for 24 h. TNFα production was measured by ELISA of supernatants. B. BMDM were pretreated 500 nM of SMAC mimetic Compound A, GT13072 or birinapant ±1 μM of LY2228820. TNFα production was measured by ELISA of supernatants. N=3 biological repeats and error bars are SEM. C. BMDM were pretreated±the indicated dose of MK2 inhibitor PF-3644022 and the p38 inhibitor LY2228820, VX-702, TAK-715 or VX-745 for 30 min then treated with 500 nM of SMAC mimetic Compound A. Cell viability was measured after 24 h of treatment using CellTiter-Glo® (CTG) reagent. N=3 biological repeats and error bars are SEM.
BMDMs from C56/B16, p38α^LysMCre or Mk2^−/− were cultured for 6 days in DMEM+10% FBS (v/v)+20% L929 mouse fibroblasts (a source of macrophage colony stimulating factor), plated and assayed the following day. BMDMs cells were seeded and assayed in the presence of L929 conditioned medium. AML cells were cultured in IMDM+10% FBS (v/v)+2.5 ng/ml of IL-3. NCI-H929 cells were cultured in RPMI+10% FBS (v/v). Cell suspension from breast ER+ patient derived tumours was cultured in mammosphere media. After treatment with SMAC mimetic with or without kinases inhibitors cell viability was measured by staining with propidium iodide (2 μg/mL) or by using CellTiter-Glo® (Promega).

[2] = tested on: Bone Marrow Derived Macrophages (BMDM); experiment: TNFα production by ELISA in BMDM treated with SMAC mimetic ± p38 inhibitors (kinase inhibitors screen); assay type: cell-based, mouse; conditions: 500 nM CompA, GT13072 or birinapant ± 1 μM LY2228820, FIG. 1B
Method: FIG. 1: p38 inhibitors increase TNFα production and cell death induced by SMAC mimetics. A. Bone Marrow Derived Macrophages (BMDM) were pretreated ±1 μM of the indicated p38 inhibitors for 30 min then treated with 500 nM of SMAC mimetic Compound A (CompA) for 24 h. TNFα production was measured by ELISA of supernatants. B. BMDM were pretreated 500 nM of SMAC mimetic Compound A, GT13072 or birinapant ±1 μM of LY2228820. TNFα production was measured by ELISA of supernatants. N=3 biological repeats and error bars are SEM. C. BMDM were pretreated±the indicated dose of MK2 inhibitor PF-3644022 and the p38 inhibitor LY2228820, VX-702, TAK-715 or VX-745 for 30 min then treated with 500 nM of SMAC mimetic Compound A. Cell viability was measured after 24 h of treatment using CellTiter-Glo® (CTG) reagent. N=3 biological repeats and error bars are SEM. BMDMs from C56/B16, p38α^LysMCre or Mk2^−/− were cultured for 6 days in DMEM+10% FBS (v/v)+20% L929 mouse fibroblasts (a source of macrophage colony stimulating factor), plated and assayed the following day. BMDMs cells were seeded and assayed in the presence of L929 conditioned medium. AML cells were cultured in IMDM+10% FBS (v/v)+2.5 ng/ml of IL-3. […] After treatment with SMAC mimetic with or without kinases inhibitors cell viability was measured by staining with propidium iodide (2 μg/mL) or by using CellTiter-Glo® (Promega). […]

C57BL/6 mice = experiment: Tolerability of SMAC mimetic plus p38 inhibitor in non tumour-bearing mice; assay type: in vivo; conditions: LY2228820 15 mg/kg combined with GT13072 5 mg/kg; FIG. 7C
Method: FIG. 7: Mice tolerate administration of birinapant plus p38 inhibitor. A. Mononuclear cells isolated from healthy donor by Ficoll sedimentation were treated for 48 h with indicated drugs. CD34^+ cell death was measured by staining with PI and flow cytometry. For each donor sample, graphs show mean of at least n=2 technical replicates across n=2-5 independent experiments. B and C. C57BL/6 mice were intra-peritoneally injected with vehicle (captisol 6%) or birinapant (B) or GT13072 (C) or LY2228820 or combination of LY2228820 and SM at indicated concentration. Mice received 8 injections twice a week over 4 weeks. Mice were euthanised 2 weeks after the treatment stopped. Graphs show organs, body weights and blood cell populations with 6 mice/group (B), 4 mice/group (C). Error bars are SEM.
To assess the safety of SMAC mimetic plus p38 inhibitor C57BL6 mice were injected by intra-peritoneal route twice a week for 4 weeks with either vehicle (6% Captisol) or 15 mg/kg of LY222820 or 5 mg/kg birinapant±15 mg/kg LY2228820, or 10 mg/kg birinapant±15 mg/kg LY2228820. Another cohort received either vehicle or 5 mg/kg of GT13072, or 15 mg/kg of LY222820 or combination.
200 μL of blood was collected from the retro-orbital plexus into tubes containing potassium ethylenediaminetetraacetic acid (Sarstedt) and analyzed in an Advia 2120 automated hematologic analyzer (Bayer).

[3] = tested on: low- and intermediate-1-risk Myelodysplastic syndromes; conditions: cited from earlier work
[4] = tested on: MLL-ENL-luciferase leukemic cells; experiment: Anti-tumour efficacy in mice bearing MLL-ENL-luciferase leukemia; assay type: in vivo, mouse; conditions: mice bearing MLLENL-Luc, after one week of treatment; birinapant 5 mg/kg, LY2228820 10 mg/kg i.p. twice a week; FIG. 8A
Method: FIG. 8: Combination of birinapant with p38 inhibitor decreases AML tumor burden. Mice bearing MLLENL-luciferase (A and B) or MLL-AF9 (C) leukemic cells received i.p injections of birinapant (5 mg/kg), LY2228820 (10 mg/kg) or the combined drugs twice a week for 4 weeks. A. Representative data of in vivo imaging of leukaemia progression in mice bearing MLL-ENL-luciferase. B. Kaplan-Meier survival curve of mice bearing MLL-ENL-luciferase and treated or not with birinapant, LY222820 or combined therapy. C. Kaplan-Meier survival curve of mice bearing MLL-AF9 and treated or not with birinapant, LY222820 or combined therapy.
To assess the anti-tumour efficacy of SMAC mimetic plus p38 inhibitor C57BL6 Albinos mice were injected by intra-venous route with 5·10^5 MLLENLluc. Luciferase activity was measured at D4 and D8 after leukemic cells injection to ensure engraftment. Treatment started at D8. Mice were treated twice a week for 4 weeks with either vehicle (6% Captisol), 5 mg/kg of Birinapant, or 10 mg/kg of LY222820 or combination. Mice were monitored for leukemia progression once a week using the in vivo bioluminescent imaging. […]
To assess the therapeutic efficacy of the combination multiple primary MLL-ENL and MLL-AF9 leukemias were transplanted and the secondary recipient mice were treated with the different drugs. […] The engraftment and trafficking were evaluated by in vivo bioluminescent imaging. […]

[5] = tested on: human AML patient samples; experiment: In vitro response of human AML patient samples to Birinapant; assay type: cell-based; conditions: single agent
[6] = tested on: advanced solid tumours and lymphoma; conditions: intravenous administration, Phase I, patients; cited from earlier work
[7] = oral administration, Phase I/II, patients

## O=c1ncn2nc(Sc3ccc(F)cc3F)ccc2c1-c1c(Cl)cccc1Cl [VX-745]
[1]
  cell death induced by SMAC mimetics: dramatically increased

## CCc1nc(-c2cccc(C)c2)c(-c2ccnc(NC(=O)c3ccccc3)c2)s1 [TAK-715]
[1]
  cell death induced by SMAC mimetics: dramatically increased

## CC(C)(C)Cn1c(N)nc2ccc(-c3[nH]c(C(C)(C)C)nc3-c3ccc(F)cc3)nc21 [LY2228820]
[2]
  TNF production of three different smac-mimetics: increased TNF production
[1]
  cell death induced by SMAC mimetics: dramatically increased
C57BL/6 mice
  effect on splenomegaly induced by GT13072: did not even exacerbate

## Cc1ccc(-c2ccc3c(ccc4sc5c(c43)NC[C@@H](C)NC5=O)n2)cn1 [PF-3644022]
[1]
  cell death induced by SMAC mimetics: dramatically increased

## NC(=O)c1ccc(N(C(N)=O)c2c(F)cccc2F)nc1-c1ccc(F)cc1F [VX-702]
[1]
  cell death induced by SMAC mimetics: dramatically increased

## C[C@@H]1CN(Cc2ccc(F)cc2)[C@@H](C)CN1C(=O)c1cc2c(C(=O)C(=O)N(C)C)cn(C)c2cc1Cl [Talmapimod]
[3]; [7]
  complete remission: only one patient achieved a complete remission
  tolerability: well tolerated
[3]; the one patient with complete remission
  duration of complete remission: more than 2 years

## CC[C@H](NC(=O)[C@H](C)NC)C(=O)N1C[C@@H](O)C[C@H]1Cc1c(-c2[nH]c3cc(F)ccc3c2C[C@@H]2C[C@H](O)CN2C(=O)[C@H](CC)NC(=O)[C@H](C)NC)[nH]c2cc(F)ccc12 [Birinapant]
[4]
  response to treatment (bioluminescent imaging): did not
[5]
  response to Birinapant treatment in vitro: some human AML patient samples did not respond
[6]
  anti-tumour activity: evidence of anti-tumour activity
  tolerability: well tolerated with no dose-limiting toxicities

Reference: patent US9861679B2, “Method of treating cancer” (priority 2014, dated 2018)
